Results: patent US6737383B1, “Herbicidal oxadiazolidines” (priority 1999, dated 2004)

Assays:
[1] = tested on: wheat; assay: Test B pre/postemergence wheat; assay type: in vivo, Triticum aestivum
Outline: (§1)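 Response is a visual 0-to-10 score relative to untreated plants, where 0 means no effect and 10 means complete control, taken twelve to sixteen days after application. Treatments went onto soil at planting and onto foliage of 1- to 4-leaf plants, using a surfactant-containing non-phytotoxic solvent.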

[2] = tested on: rice; assay: Test B flood test rice; assay type: in vivo, Oryza sativa
Outline: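 Flood test on plants grown to the 2-leaf stage; treated plants kept in greenhouse twelve to sixteen days, then visually rated against controls on a 0 (no effect) to 10 (complete control) scale.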

[3] = tested on: crabgrass; assay: Test B pre/postemergence crabgrass; assay type: in vivo, Digitaria sanguinalis
Outline: as §1

[4] = tested on: wild oat; assay: Test B pre/postemergence wild oat; assay type: in vivo, Avena fatua
Outline: as §1

[5] = Preemergence, Rate 62 g/ha, scale of 0 to 10 where 0 is no effect and 10 is complete control
[6] = Preemergence, Rate 250 g/ha, scale of 0 to 10 where 0 is no effect and 10 is complete control
[7] = Preemergence, Rate 500 g/ha, scale of 0 to 10 where 0 is no effect and 10 is complete control
[8] = Rate 62 g/ha, Postemergence, scale of 0 to 10 where 0 is no effect and 10 is complete control
[9] = Rate 125 g/ha, Postemergence, scale 0 to 10
[10] = Rate 125 g/ha, Preemergence, scale of 0 to 10 where 0 is no effect and 10 is complete control
[11] = Rate 500 g/ha, Postemergence, scale 0 to 10, 0 no effect, 10 complete control
[12] = Rate 125 g/ha, Pre-emergence, flood test species, scale 0 to 10 where 0 is no effect and 10 is complete control
[13] = Rate 250 g/ha, Pre-emergence, flood-test species, scale 0 to 10, 0 is no effect, 10 is complete control
[14] = Rate 500 g/ha, Pre-emergence, flood test species, scale 0 to 10 (0 no effect, 10 complete control)
[15] = Rate 62 g/ha, Postemergence, scale 0 to 10 (0 no effect, 10 complete control)
[16] = Rate 125 g/ha, Postemergence, scale of 0 to 10 where 0 is no effect and 10 is complete control
[17] = Rate 250 g/ha, Postemergence, scale of 0 to 10 where 0 is no effect and 10 is complete control
[18] = Postemergence, Rate 125 g/ha, scale 0 to 10, 0 is no effect, 10 is complete control
[19] = Preemergence, Rate 62 g/ha, scale 0 to 10 (0 no effect, 10 complete control)
[20] = Rate 500 g/ha, listed under Postemergence (flood test species), scale 0 to 10, 0 no effect, 10 complete control
[21] = Postemergence, Rate 62 g/ha, scale 0 to 10, 0 is no effect, 10 is complete control
[22] = Postemergence, Rate 250 g/ha, scale 0 to 10, 0 no effect, 10 complete control
[23] = Preemergence, Rate 125 g/ha, scale 0 to 10 (0 no effect, 10 complete control)
[24] = Preemergence, Rate 500 g/ha, scale 0 (no effect) to 10 (complete control)
[25] = Rate 125 g/ha, Postemergence, scale 0 to 10, 0 no effect, 10 complete control
[26] = Postemergence, Rate 125 g/ha, scale of 0 to 10 where 0 is no effect and 10 is complete control
[27] = Preemergence, Rate 125 g/ha, scale of 0 to 10 where 0 is no effect and 10 is complete control
[28] = Preemergence, Rate 250 g/ha, scale 0 to 10 (0 no effect, 10 complete control)
[29] = Rate 500 g/ha, Postemergence, scale 0 to 10, 0 is no effect, 10 is complete control

## COc1cc(C)cc(C)c1-n1c(=O)on(C(=O)N(c2ccc(F)cc2F)C(C)C)c1=O [Compound 223]
[1]; [5]
  Wheat plant response rating: 0
[1]; [6]
  Wheat plant response rating: 0
[1]; [7]
  Plant response rating, Wheat: 0
[1]; [8]
  Wheat plant response rating: 0
[1]; [9]
  Wheat plant response rating: 0
[1]; [10]
  Wheat plant response rating: 0
[1]; Rate 250 g/ha, Postemergence
  Plant response rating (0 to 10; 0 is no effect, 10 is complete control), Wheat: 0
[1]; [11]
  Wheat plant response rating: 0
[2]; Rate 62 g/ha, headed Pre-emergence (flood test species), scale 0 to 10 (0 no effect, 10 complete control)
  Rice plant response rating: 0
[2]; [12]
  Rice plant response rating: 0
[2]; [13]
  Rice plant response rating: 0
[2]; [14]
  Rice plant response rating: 0
[3]; [5]
  Crabgrass plant response rating: 4
[3]; [6]
  Crabgrass plant response rating: 7
[3]; [7]
  Plant response rating, Crabgrass: 9
[3]; [8]
  Crabgrass plant response rating: 0
[3]; [9]
  Crabgrass plant response rating: 0
[3]; [10]
  Crabgrass plant response rating: 6
[3]; Rate 250 g/ha, Postemergence
  Plant response rating (0 to 10; 0 is no effect, 10 is complete control), Crabgrass: 1
[3]; [11]
  Crabgrass plant response rating: 3
[4]; [6]
  Wild oats plant response rating: 2
[4]; [7]
  Plant response rating, Wild oats: 4
[4]; [8]
  Wild oats plant response rating: 0
[4]; [9]
  Wild oats plant response rating: 0
[4]; [10]
  Wild oats plant response rating: 0
[4]; Rate 250 g/ha, Postemergence
  Plant response rating (0 to 10; 0 is no effect, 10 is complete control), Wild oats: 0
[4]; [11]
  Wild oats plant response rating: 2

## C=CCn1c(=O)on(C(=O)N(CC)C2CCCCC2)c1=O [Compound 307]
[1]; [5]
  Wheat plant response rating: 0
[1]; Preemergence, Rate 125 g/ha
  Wheat plant response rating (0 to 10 scale): 0
[1]; [6]
  Wheat plant response rating: 0
[1]; [7]
  Wheat plant response rating: 0
[1]; [15]
  Wheat plant response rating: 0
[1]; [16]
  Wheat plant response rating: 0
[1]; [17]
  Plant response rating, Wheat: 0
[2]; Pre-emergence, Rate 1000 g/ha, scale 0 to 10 (0 no effect, 10 complete control)
  Rice plant response rating: 0
[2]; [12]
  Rice plant response rating: 0
[2]; [13]
  Rice plant response rating: 0
[2]; [14]
  Rice plant response rating: 0
[3]; [5]
  Crabgrass plant response rating: 0
[3]; Preemergence, Rate 125 g/ha
  Crabgrass plant response rating (0 to 10 scale): 0
[3]; [6]
  Crabgrass plant response rating: 0
[3]; [7]
  Crabgrass plant response rating: 2
[3]; [15]
  Crabgrass plant response rating: 0
[3]; [16]
  Crabgrass plant response rating: 0
[3]; [17]
  Plant response rating, Crabgrass: 0
[4]; [5]
  Wild oats plant response rating: 0
[4]; Preemergence, Rate 125 g/ha
  Wild oats plant response rating (0 to 10 scale): 0
[4]; [6]
  Wild oats plant response rating: 0
[4]; [7]
  Wild oats plant response rating: 8
[4]; [15]
  Wild oats plant response rating: 0
[4]; [16]
  Wild oats plant response rating: 0
[4]; [17]
  Plant response rating, Wild oats: 0

## CC(C)C(C)n1c(=O)on(C(=O)N(c2ccccc2)C(C)C)c1=O (stereo not shown) [Compound 355]
[1]; [18]
  Plant response rating, Wheat: 2
[1]; [19]
  Plant response rating, Wheat: 0
[1]; Preemergence, Rate 125 g/ha
  Wheat plant response rating (0 to 10 scale): 0
[1]; [6]
  Wheat plant response rating: 0
[1]; [7]
  Wheat plant response rating: 2
[1]; [8]
  Wheat plant response rating: 0
[1]; [11]
  Plant response rating, Wheat: 3
[2]; Postemergence (flood test), Rate 125 g/ha, scale 0 to 10, 0 is no effect, 10 is complete control
  Plant response rating, Rice: 0
[2]; Rate 62 g/ha, Postemergence (flood test species), scale of 0 to 10 where 0 is no effect and 10 is complete control
  Rice plant response rating: 0
[2]; [20]
  Plant response rating, Rice: 0
[3]; [18]
  Plant response rating, Crabgrass: 0
[3]; [19]
  Plant response rating, Crabgrass: 4
[3]; Preemergence, Rate 125 g/ha
  Crabgrass plant response rating (0 to 10 scale): 10
[3]; [6]
  Crabgrass plant response rating: 10
[3]; [7]
  Crabgrass plant response rating: 10
[3]; [8]
  Crabgrass plant response rating: 0
[3]; [11]
  Plant response rating, Crabgrass: 2
[4]; [18]
  Plant response rating, Wild oats: 3
[4]; [19]
  Plant response rating, Wild oats: 0
[4]; Preemergence, Rate 125 g/ha
  Wild oats plant response rating (0 to 10 scale): 0
[4]; [6]
  Wild oats plant response rating: 0
[4]; [7]
  Wild oats plant response rating: 9
[4]; [8]
  Wild oats plant response rating: 0
[4]; [11]
  Plant response rating, Wild oats: 5

## CCN(CC)C(=O)n1oc(=O)n(Cc2cccs2)c1=O [Compound 77]
[1]; [21]
  Wheat plant response rating: 0
[1]; [22]
  Wheat plant response rating: 0
[1]; [19]
  Wheat plant response rating: 0
[1]; [23]
  Plant response rating, Wheat: 0
[1]; [6]
  Plant response rating, Wheat: 0
[1]; [24]
  Wheat plant response rating: 0
[1]; [25]
  Wheat plant response rating: 0
[1]; [11]
  Wheat plant response rating: 4
[2]; [21]
  Rice plant response rating: 0
[2]; Rate 125 g/ha, Postemergence section (flood test species), scale 0 to 10, 0 no effect, 10 complete control
  Rice plant response rating: 0
[2]; [20]
  Rice plant response rating: 0
[2]; flood test, listed under Postemergence, Rate 250 g/ha, scale 0 to 10, 0 no effect, 10 complete control
  Rice plant response rating: 0
[3]; [21]
  Crabgrass plant response rating: 0
[3]; [22]
  Crabgrass plant response rating: 0
[3]; [19]
  Crabgrass plant response rating: 0
[3]; [23]
  Plant response rating, Crabgrass: 2
[3]; [6]
  Plant response rating, Crabgrass: 2
[3]; [24]
  Crabgrass plant response rating: 3
[3]; [25]
  Crabgrass plant response rating: 0
[3]; [11]
  Crabgrass plant response rating: 0
[4]; [21]
  Wild oats plant response rating: 0
[4]; [22]
  Wild oats plant response rating: 0
[4]; [19]
  Wild oats plant response rating: 0
[4]; [23]
  Plant response rating, Wild oats: 0
[4]; [6]
  Plant response rating, Wild oats: 0
[4]; [24]
  Wild oats plant response rating: 0
[4]; [25]
  Wild oats plant response rating: 0
[4]; [11]
  Wild oats plant response rating: 3

## C=C(Cc1ccccc1)Cn1c(=O)on(C(=O)N(c2ccccc2)C(C)C)c1=O [Compound 650]
[1]; [21]
  Plant response rating, Wheat: 0
[1]; [26]
  Wheat plant response rating: 0
[1]; [5]
  Wheat plant response rating: 0
[1]; [27]
  Wheat plant response rating: 0
[1]; [28]
  Plant response rating, Wheat: 0
[1]; [7]
  Plant response rating, Wheat: 0
[1]; [29]
  Wheat plant response rating: 0
[2]; Rate 62 g/ha, flood test species, Pre-emergence, visual evaluation after twelve to sixteen days
  Plant response rating, Rice (0 to 10 scale, 0 is no effect, 10 is complete control): 0
[2]; Rate 125 g/ha, under heading Pre-emergence, flood test species, visual evaluation after twelve to sixteen days
  Rice plant response rating (0 to 10 scale, 0 is no effect, 10 is complete control): 0
[2]; Rate 250 g/ha, Pre-emergence (flood test species), scale 0 to 10, 0 is no effect, 10 is complete control
  Rice plant response rating: 0
[2]; Rate 500 g/ha, Pre-emergence section of Table B, 0 to 10 scale (0 no effect, 10 complete control)
  Rice plant response rating: 0
[3]; [21]
  Plant response rating, Crabgrass: 0
[3]; [26]
  Crabgrass plant response rating: 1
[3]; Postemergence, Rate 250 g/ha, scale of 0 to 10, 0 is no effect, 10 is complete control
  Crabgrass plant response rating: 7
[3]; [5]
  Crabgrass plant response rating: 3
[3]; [27]
  Crabgrass plant response rating: 8
[3]; [28]
  Plant response rating, Crabgrass: 9
[3]; [7]
  Plant response rating, Crabgrass: 9
[3]; [29]
  Crabgrass plant response rating: 9
[4]; [21]
  Plant response rating, Wild oats: 0
[4]; [26]
  Wild oats plant response rating: 0
[4]; [5]
  Wild oats plant response rating: 0
[4]; [27]
  Wild oats plant response rating: 0
[4]; [28]
  Plant response rating, Wild oats: 0
[4]; [7]
  Plant response rating, Wild oats: 0
[4]; [29]
  Wild oats plant response rating: 0
